# Data from PubChem BioAssay (NCI).
# Several values for one entry are separate records, joined by “and”; a condition that tells them apart may be missing. Equal entries are not always repeated.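 Values below derive from 48-hour exposures of cells grown in 96-well plates, with endpoints linearly interpolated between the two concentrations bracketing the appropriate inhibition level. Abbreviation: GI50, concentration required for 50% inhibition of growth. TGI is the concentration that stops growth completely.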
# System: KM12 colon
# Test: NCI anticancer screen, dose series, 48 h
Structure (SMILES),TGI,GI50 [µM]
CCC(C)(O)c1cnc(CC(C)C)c(=O)n1O (centres undefined),> 100 µM,
CCC1CN2CCc3cc(OC)c(OC)cc3C2CC1CC1c2cc(OC)c(OC)cc2CCN1C(=O)C1CCCN1 (centres undefined),> 100 µM,
COc1cc2c(/C=N\N=C(N)N)c[nH]c2cc1C,28 µM,14.9
CCOP(=O)(OCC)C(C(=O)OC)C(=O)C(=O)Nc1ccc(Cl)cc1Cl (centres undefined),> 100 µM,
CC(C)=C1CCC(CN(C)C)C1=O (centres undefined),> 100 µM,
COc1cccc(/C=N/[N-]C(=O)c2ccncc2)c1[O-].COc1cccc(/C=N/[N-]C(=O)c2ccncc2)c1[O-].[O]=[U](=[O])([OH2+])[OH2+],> 100 µM,36.3
ClC(Cl)=C1C(=C(Cl)Cl)C(Cl)(Cl)C1(Cl)Cl,18.4 µM,
CC(C)(C)c1ccc2c(c1)S(=O)(=O)Nc1ccc(Cl)cc1NS(=O)(=O)c1cc(C(C)(C)C)ccc1OCCOCCOCCO2,> 100 µM,
O=C1c2ccccc2-c2c1c1ccccc1c(=O)n2CCN1CCNCC1,3.47 µM,1.24
Cc1ccc(OCCOCCOCCOCCOc2ccc(C)n(O)c2=S)c(=S)n1O,> 100 µM,0.0818
N#CC(=Nc1ccccc1N(C(=O)c1ccccc1)C(=O)c1ccccc1)c1ccccc1,> 70.9 µM,
COc1c(C)n(CCO)ccc1=O,> 100 µM,
COC(=O)C(=O)C(C(C)=O)C(=O)NCc1ccc(OC)c(OC)c1 (centres undefined),> 100 µM,
Nc1c(-c2ccccc2-c2c(N)[n+]([O-])c3ccccc3[n+]2[O-])[n+]([O-])c2ccccc2[n+]1[O-],50.2 µM,
CCOC(=O)NC(=O)c1cn(C(CC)COC(=O)NCCCCCCNC(=O)OCC(CC)n2cc(C(=O)NC(=O)OCC)c(=O)[nH]c2=O)c(=O)[nH]c1=O (centres undefined),> 100 µM,
O=C(CC(=O)C1CCOC1=O)C(=O)Nc1cccc(Cl)c1 (centres undefined),> 100 µM,
CCN1c2ccccc2-c2c3c1cc(C)cc3c1ccccc1[n+]2CC,1.41 µM,
Cc1cccc(C2=C/C(=C(\SS/C(C(=O)c3ccc(OCC(=O)O)c(Cl)c3Cl)=C3\C=C(c4cccc(C)c4)SS3)C(=O)c3ccc(OCC(=O)O)c(Cl)c3Cl)SS2)c1,52.9 µM,

Structure (SMILES),TGI,GI50 [µM]
CC(=O)N1CCN(c2ccc(OCC3COC(Cn4ccnc4)(c4ccc(Cl)cc4Cl)O3)cc2)CC1 (centres undefined),> 100 µM,
O=C(Cc1nc2c3c(ccc2[nH]c1=O)C(=O)c1ccccc1C3=O)C(=O)Nc1ccccc1[N+](=O)[O-],43 µM,
CC1=C(C#N)C(=O)CC(c2ccc(Cl)cc2)N(C)N1 (centres undefined),> 100 µM,
Nc1nc(-c2ccc(Cl)c([N+](=O)[O-])c2)cs1,> 100 µM,
COc1cc(/C=C2\[C@H]3c4c(c(OC)c(C)c(OC)c4OC)CC(C(=O)N2Cc2ccccc2)N3C)c(OC)c(C)c1OC,> 100 µM,
CN(C)C(=S)SSC(=S)N(C)C,24.7 µM and 11.1 µM and 45.4 µM,
COc1ccc(C(CC(=O)c2ccc3c(c2)OCO3)c2c(O)c3ccccc3oc2=O)cc1OC (centres undefined),> 100 µM,
O=C(N/C(=C\c1ccc([N+](=O)[O-])cc1)c1nc2ccccc2[nH]1)c1ccccc1,> 100 µM,
COC(=O)/C([Se]c1c(C)cc(C)cc1C)=C(/[Se]c1c(C)cc(C)cc1C)C(=O)OC,> 100 µM,
NC(=O)C(=O)CC(=O)c1ccccc1NC1=CC(=O)C(=O)c2ccccc21,> 100 µM,
Cc1cc2c(c(C(N)=O)c1C)-c1ccccc1C2=O,> 100 µM,
CCCC(=O)C1=C(O)C(Cc2c(O)c(C)c(O)c(C(=O)CCC)c2O)=C(O)C(C)(C)C1=O,> 50 µM,
COC(=O)/C(=N/O)C(C(=O)C=C(C)C)C(=O)C(=O)Nc1nc2ccc([N+](=O)[O-])cc2s1 (centres undefined),> 100 µM,
Cc1ccccc1C1=[N+]([O-])c2ccc(Cl)cc2C1=O,27.1 µM,
Cc1[nH]c2ccccc2c1C1Cc2ccccc2N1C(=O)C#Cc1ccc([N+](=O)[O-])cc1 (centres undefined),> 100 µM,
CCC/C=C/C=C/C1CC(O)C(O)C(=O)C1CO (centres undefined),> 100 µM,
CCOC(=O)NC(=O)c1cn(C2CCCCC2)c(=O)[nH]c1=O,> 100 µM,
Cn1c(=O)nc2n(-c3cc(C(F)(F)F)cc(C(F)(F)F)c3)c3ccccc3nc-2c1=O,> 100 µM,

# System: M14 melanoma
# Test: NCI anticancer screen, dose series, 48 h
Structure (SMILES),GI50 [µM],TGI [µM]
O=C(O)c1cccc(COc2ccc([N+](=O)[O-])cc2Cl)c1,> 100,> 100
Nc1ccccc1C(=O)/C=C/c1c(O)ccc2ccccc12,,> 100
CCC1CN2CCc3cc(OC)c(OC)cc3C2CC1CC1c2cc(OC)c(OC)cc2CCN1C(=O)C1CCCN1 (centres undefined),,27.6
CC(C(=O)c1ccc(Cl)cc1)/C(=N/NC(=O)NN)C(=O)Nc1cccc(C(F)(F)F)c1 (centres undefined),,> 100
COc1cc2c(/C=N\N=C(N)N)c[nH]c2cc1C,15.1,28.3
CCOP(=O)(OCC)C(C(=O)OC)C(=O)C(=O)Nc1ccc(Cl)cc1Cl (centres undefined),,> 100
CC(C)=C1CCC(CN(C)C)C1=O (centres undefined),,28.4
